# According to US20120328565A1, “ANTIVIRAL COMPOUNDS” (priority 2011, published 2012):
# Test system: HCV GT-1b Con1 subgenomic replicon
# Assay: HCV GT1b replicon luciferase reporter assay (2209-23 cells)
# Type: cell-based
# Conditions: Hepatitis C virus, 2209-23 cell line (Huh-7 with GT-1b Con1 subgenomic replicon), Renilla luciferase read 72 hours after compound addition
# Excerpt: Determination of compounds HCV GT1b inhibitory replicon activity using the replicon luciferase reporter assay
# The 2209-23 cell line was developed at Roche by stable transfection of the hepatoma cell line Huh-7 with a GT-1b Con1 subgenomic bicistronic replicon as previously described. Subgenomic replicon cell line was established in cured Huh7 cells, obtained from R. Bartenschlager (J. Virol. 2003 March; 77 (5):3007-19) The GT-1a H77 subgenomic replicon vector pRLuc H771b 75 S/I, was created by replacing the non structural region of the GT-1b Con1 subgenomic replicon by the one of the H77 strain, except for the first 75 amino acids of the NS3 protein that are from GT-1b Con1 strain. (J. Virol. 2001 77:5352-59) The GT-1a pRLuc H771b 75 S/I subgenomic replicon cell line was established in cured Huh7 cells, obtained from R. Bartenschlager. (J. Virol. 2003 March; 77 (5):3007-19)
# All the subgenomic replicon cell lines were cultured in Dulbecco's Modified Eagle Medium (DMEM-Glutamax™-I; Invitrogen Cat #10569-010). The medium was supplemented with 10% Fetal Bovine Serum (Invitrogen Cat #10082-147), 1% penicillin/streptomycin (Mediatech Cat #30-002-CI) and 500 μg/ml of G418 (Mediatech Cat #30-234-CI). Cells were maintained at 37° C. in a humidified 5% CO2 atmosphere.
# 2209-23 cells were plated at a cell density of 5000 cells per well in 96 well plates (Becton Dickinson, Cat #35 3296). Cells were plated in 90 μl of Dulbecco's Modified Eagle Medium (DMEM-Glutamax™-I), (Invitrogen Cat #10569-010) medium was supplemented with 5% Fetal Bovine Serum (Invitrogen Cat #10082-147), 1% penicillin/streptomycin (Mediatech Cat #30-002-CI). The pRluc H771b 75 S/I cells were plated in 96-well plate at 3000 cells/well in DMEM-Glutamax™-I containing 5% FBS and 1% penicillin/streptomycin in 90 μl final volume. Cells were allowed to equilibrate for 24 hours at 37° C. and 5% CO2 at which time compounds were added. Compounds (or medium as a control) were added 24 hours post-plating in 3 fold dilutions at a final DMSO concentration of 1% in 10 ul volume. Renilla luciferase reporter signal was read 72 hours after addition of compounds using the Renilla Luciferase Assay System (Promega, cat #E2820). EC50 values were defined as the compound concentration at which a 50% reduction in the levels of renilla luciferase reporter was observed as compared to control samples in the absence of compound and was determined by non-linear fitting of compound dose-response data. The EC50 was approximated if maximum percentage inhibition was less than 90% and more than 70%.
row,SMILES,IC50 [nM]
1,"COC(=O)N[C@H](C(=O)N1CCC[C@H]1C(=O)NC(=O)Nc1ccc(-c2ccc(-c3cnc([C@@H]4CCCN4C(=O)[C@@H](NC(=O)OC)C(C)C)[nH]3)cc2)cc1)C(C)C [Compound I-1, ((S)-1-{(S)-2-[3-(4′-{2-[(S)-1-((S)-2-Methoxycarbonylamino-3-methyl-butyryl)-pyrrolidin-2-yl]-3H-imidazol-4-yl}-biphenyl-4-yl)-ureidocarbonyl]-pyrrolidine-1-carbonyl}-2-methyl-propyl)-carbamic acid methyl ester]",0.463
2,"COC(=O)N[C@H](C(=O)N1CCC[C@H]1C(=O)NC(=O)Nc1cccc(-c2ccc(-c3cnc([C@@H]4CCCN4C(=O)[C@@H](NC(=O)OC)C(C)C)[nH]3)cc2)c1)C(C)C [Compound I-2, ((S)-1-{(S)-2-[3-(4′-{2-[(S)-1-((S)-2-Methoxycarbonylamino-3-methyl-butyryl)-pyrrolidin-2-yl]-3H-imidazol-4-yl}-biphenyl-3-yl)-ureidocarbonyl]-pyrrolidine-1-carbonyl}-2-methyl-propyl)-carbamic acid methyl ester]",8.42
3,"COC(=O)N[C@H](C(=O)N1CCC[C@H]1c1ncc(-c2ccc(-c3ccc(NC(=O)NC(=O)[C@@H]4CCCN4C(=O)[C@H](NC(=O)OC)c4ccccc4)cc3)cc2)[nH]1)C(C)C [Compound I-3, ((S)-1-{(S)-2-[5-(4′-{3-[(S)-1-((R)-2-Methoxycarbonylamino-2-phenyl-acetyl)-pyrrolidine-2-carbonyl]-ureido}-biphenyl-4-yl)-1H-imidazol-2-yl]-pyrrolidine-1-carbonyl}-2-methyl-propyl)-carbamic acid methyl ester]",0.009
4,"COC(=O)N[C@H](C(=O)N1CCC[C@H]1c1ncc(-c2ccc(-c3ccc(NC(=O)NC(=O)[C@@H]4CCCN4C(=O)[C@@H](c4ccccc4)N(C)C)cc3)cc2)[nH]1)C(C)C [Compound I-4, ((S)-1-{(S)-2-[5-(4′-{3-[(S)-1-((R)-2-Dimethylamino-2-phenyl-acetyl)-pyrrolidine-2-carbonyl]-ureido}-biphenyl-4-yl)-1H-imidazol-2-yl]-pyrrolidine-1-carbonyl}-2-methyl-propyl)-carbamic acid methyl ester]",0.007
5,"COC(=O)N[C@H](C(=O)N1CCC[C@H]1C(=O)NC(=O)NCc1ccc(-c2ccc(-c3cnc([C@@H]4CCCN4C(=O)[C@@H](NC(=O)OC)C(C)C)[nH]3)cc2)cc1)C(C)C [Compound I-5, ((S)-1-{(S)-2-[5-(4′-{3-[(S)-1-((S)-2-Methoxycarbonylamino-3-methyl-butyryl)-pyrrolidine-2-carbonyl]-ureidomethyl}-biphenyl-4-yl)-1H-imidazol-2-yl]-pyrrolidine-1-carbonyl}-2-methyl-propyl)-carbamic acid methyl ester]",1.98
6,"COC(=O)N[C@H](C(=O)N1CCC[C@H]1c1ncc(-c2ccc(-c3ccc(CNC(=O)NC(=O)[C@@H]4CCCN4C(=O)[C@H](NC(=O)OC)c4ccccc4)cc3)cc2)[nH]1)C(C)C [Compound I-6, ((S)-1-{(S)-2-[5-(4′-{3-[(S)-1-((R)-2-Methoxycarbonylamino-2-phenyl-acetyl)-pyrrolidine-2-carbonyl]-ureidomethyl}-biphenyl-4-yl)-1H-imidazol-2-yl]-pyrrolidine-1-carbonyl}-2-methyl-propyl)-carbamic acid methyl ester]",6.74
7,"COC(=O)N[C@H]1CCC(=O)N2CCC[C@@H](c3ncc(-c4ccc(-c5ccc(NC(=O)NC(=O)[C@@H]6CCCN6C(=O)[C@H](NC(=O)OC)c6ccccc6)cc5)cc4)[nH]3)N2C1=O [Compound I-7, {(4S,7S)-4-[5-(4′-{3-[(S)-1-((R)-2-Methoxycarbonylamino-2-phenyl-acetyl)-pyrrolidine-2-carbonyl]-ureido}-biphenyl-4-yl)-1H-imidazol-2-yl]-6,10-dioxo-octahydro-pyridazino[1,2-a][1,2]diazepin-7-yl}-carbamic acid methyl ester]",0.427
8,"COC(=O)N[C@H](C(=O)N1CCC[C@H]1c1ncc(-c2ccc(-c3nc4ccc(NC(=O)NC(=O)[C@@H]5CCCN5C(=O)OC(C)(C)C)cc4s3)cc2)[nH]1)C(C)C [Compound I-8, (S)-2-{3-[2-(4-{2-[(S)-1-((S)-2-Methoxycarbonylamino-3-methyl-butyryl)-pyrrolidin-2-yl]-3H-imidazol-4-yl}-phenyl)-benzothiazol-6-yl]-ureidocarbonyl}-pyrrolidine-1-carboxylic acid tert-butyl ester]",7.75
9,"COC(=O)N[C@H](C(=O)N1CCC[C@H]1C(=O)NC(=O)Nc1ccc2nc(-c3ccc(-c4cnc([C@@H]5CCCN5C(=O)[C@@H](NC(=O)OC)C(C)C)[nH]4)cc3)sc2c1)C(C)C [Compound I-9, [(S)-1-((S)-2-{5-[4-(6-{3-[(S)-1-((S)-2-Methoxycarbonylamino-3-methyl-butyryl)-pyrrolidine-2-carbonyl]-ureido}-benzothiazol-2-yl)-phenyl]-1H-imidazol-2-yl}-pyrrolidine-1-carbonyl)-2-methyl-propyl]-carbamic acid methyl ester]",0.344
10,"COC(=O)N[C@H](C(=O)N1CCC[C@H]1c1ncc(-c2ccc(-c3ccc(NC(=O)NC(=O)[C@@H]4CCCN4C(=O)[C@H](NC(=O)OC)c4ccccc4)cn3)cc2)[nH]1)C(C)C [Compound I-10, [(S)-1-((S)-2-{5-[4-(5-{3-[(S)-1-((R)-2-Methoxycarbonylamino-2-phenyl-acetyl)-pyrrolidine-2-carbonyl]-ureido}-pyridin-2-yl)-phenyl]-1H-imidazol-2-yl}-pyrrolidine-1-carbonyl)-2-methyl-propyl]-carbamic acid methyl ester]",0.041
11,"COC(=O)N[C@H](C(=O)N1CCC[C@H]1c1ncc(-c2ccc(-c3nc4ccc(NC(=O)NC(=O)[C@@H]5CCCN5C(=O)[C@@H](c5ccccc5)N(C)C)cc4s3)cc2)[nH]1)C(C)C [Compound I-11, [(S)-1-((S)-2-{5-[4-(6-{3-[(S)-1-((R)-2-Dimethylamino-2-phenyl-acetyl)-pyrrolidine-2-carbonyl]-ureido}-benzothiazol-2-yl)-phenyl]-1H-imidazol-2-yl}-pyrrolidine-1-carbonyl)-2-methyl-propyl]-carbamic acid methyl ester]",0.029
12,"COC(=O)N[C@H](C(=O)N1CCC[C@H]1C(=O)NC(=O)Nc1ccc(-c2ccc(-c3cnc([C@@H]4CCCN4C(=O)[C@@H](NC(=O)OC)C(C)C)[nH]3)cc2)cc1F)C(C)C [Compound I-12, ((S)-1-{(S)-2-[5-(3′-Fluoro-4′-{3-[(S)-1-((S)-2-methoxycarbonylamino-3-methyl-butyryl)-pyrrolidine-2-carbonyl]-ureido}-biphenyl-4-yl)-1H-imidazol-2-yl]-pyrrolidine-1-carbonyl}-2-methyl-propyl)-carbamic acid methyl ester]",0.064
